Measured values from the supplement of paper PMC10307832.

Tests used:
Test in all cases: relative viability (nuclei count vs DMSO), 5 days (fraction); higher = more cells survive
[1] = compound: CN(c1ncccc1CNc1nc(Nc2ccc3c(c2)CC(=O)N3)ncc1C(F)(F)F)S(C)(=O)=O + CC(=O)c1c(C)c2cnc(Nc3ccc(N4CCNCC4)cn3)nc2n(C2CCCC2)c1=O [Palbociclib] (partner 0.5 µM)
Outline: (§1)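 Nuclei were stained with Hoechst during a one-step fixation (final 0.05% Triton X-100, 1% formaldehyde, 1 ug/ml Hoechst) carried out 5 days after dosing, then counted on 4× images. The cells, lung cancer lines in 1536-well plates, had been dosed by pin tool the day after seeding with one drug alone or a fixed anchor-drug dose plus five library-drug doses (not always all listed) in √10 steps. Relative viability is the nuclei count in treated wells divided by that in vehicle wells, and each value is the median of duplicate plates.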

[2] = compound: CN(c1ncccc1CNc1nc(Nc2ccc3c(c2)CC(=O)N3)ncc1C(F)(F)F)S(C)(=O)=O + Nc1nc2[nH]cc(CCc3ccc(C(=O)N[C@@H](CCC(=O)O)C(=O)O)cc3)c2c(=O)[nH]1 [Pemetrexed] (partner 0.2 µM)
Outline: as §1

[3] = compound: CN(c1ncccc1CNc1nc(Nc2ccc3c(c2)CC(=O)N3)ncc1C(F)(F)F)S(C)(=O)=O + O=C(c1cc(Cc2n[nH]c(=O)c3ccccc23)ccc1F)N1CCN(C(=O)C2CC2)CC1 [Olaparib] (partner 8 µM)
Outline: as §1

[4] = compound: CN(c1ncccc1CNc1nc(Nc2ccc3c(c2)CC(=O)N3)ncc1C(F)(F)F)S(C)(=O)=O + Cc1nc(NC(=O)N2CCC[C@H]2C(N)=O)sc1-c1ccnc(C(C)(C)C(F)(F)F)c1 [Alpelisib] (partner 2 µM)
Outline: as §1

Cell Line	relative viability ([1]; first compound 0.01 µM)	relative viability ([1]; first compound 0.03162 µM)	relative viability ([1]; first compound 0.1 µM)	relative viability ([1]; first compound 0.3162 µM)	relative viability ([1]; first compound 1 µM)	relative viability ([2]; first compound 0.01 µM)	relative viability ([2]; first compound 0.03162 µM)	relative viability ([2]; first compound 0.1 µM)	relative viability ([2]; first compound 0.3162 µM)	relative viability ([2]; first compound 1 µM)	relative viability ([3]; first compound 0.01 µM)	relative viability ([3]; first compound 0.03162 µM)	relative viability ([3]; first compound 0.1 µM)	relative viability ([3]; first compound 0.3162 µM)	relative viability ([3]; first compound 1 µM)	relative viability ([4]; first compound 0.01 µM)	relative viability ([4]; first compound 0.03162 µM)	relative viability ([4]; first compound 0.1 µM)	relative viability ([4]; first compound 0.3162 µM)	relative viability ([4]; first compound 1 µM)
ChaGo-K-1	0.942	0.955	0.917	0.785	0.877	0.252	0.254	0.264	0.258	0.246	0.453	0.397	0.4	0.401	0.355					
EKVX	0.369	0.372	0.359	0.285	0.352	0.436	0.413	0.347	0.401	0.382	0.833	0.796	0.798	0.772	0.676	0.771	0.905	0.859	0.812	0.864
EMC-BAC-2	0.494	0.503	0.518	0.511	0.491	0.427	0.471	0.433	0.472	0.45	0.508	0.495	0.488	0.464	0.464	0.761	0.811	0.68	0.698	0.676
EPLC-272H	0.366	0.357	0.358	0.353	0.299	0.332	0.349	0.375	0.345	0.313	0.699	0.544	0.821	0.871	0.506	0.811	1.1	0.781	0.885	0.927
H3255	0.312	0.316	0.345	0.327	0.295	0.647	0.585	0.541	0.614	0.549	0.623	0.611	0.554	0.547	0.445	1.04	0.853	0.617	0.468	0.772
HARA	0.211	0.276	0.231	0.203	0.247	0.255	0.248	0.199	0.258	0.223	0.895	0.75	0.685	1.1	0.9	0.733	0.79	0.744	0.695	0.625
HCC-15	0.709	0.747	0.65	0.609	0.583	0.22	0.237	0.218	0.21	0.215	0.778	0.799	0.713	0.661	0.619	0.849	0.892	0.819	0.785	0.779
HCC-44	0.83	0.953	0.943	0.907	0.867	0.668	0.622	0.639	0.65	0.611	0.959	0.978	0.917	0.875	0.904	0.872	0.792	0.789	0.824	0.778
